According to US20130338114A1, “COMPOSITIONS FOR INCREASING STRENGTH, MUSCLE MASS, AND LEAN BODY MASS” (Chemi Nutra, priority 2012, published 2013):

Assays:
[1] = LC/MS/MS analysis of LPA and PA in human plasma after oral PA (Example 8); conditions: in vivo
Source text: Lyso-phosphatidic acid (LPA) and phosphatidic acid (PA) from human plasma includes a physical distribution of molecules varying in their fatty acids esterified to the sn-1 and sn-2 positions of glycerol-3-phosphate. The differences in polarity among the fatty acid substituted structures provide a means to resolve individual species under reversed phase chromatographic conditions. This analysis coupled with selective mass spectrometric detection based on molecular weight and distinctive fragmentation for LPA and PA compounds provided the basis for quantitation in the samples described herein. Total LPA and PA content are measured as the sum of the individual species measured.
Human plasma of a subject was analyzed after administration of lyso-phosphatidic acid and phosphatidic acid. One subject consumed 2 g of PA in form of Mediator® (Chemi Nutra). The data from the study provided the composition and concentration of PA and lyso-PA in human blood plasma as a baseline value, and changes in PA and lyso-PA concentrations after 30 minutes, 1 hour, 2 hours, 3 hours and 7 hours. It was determined that PA administration results in increases in lyso-PA and PA concentrations in human blood plasma.
An ultra performance liquid chromatograph with triple quadrupole mass spectrometry (LC/MS/MS) method was utilized to measure the content of LPA and PA molecular species in human plasma. A Waters Acquity™ Ultra-performance liquid chromatography system coupled with an AB Sciex 5500 tandem quadrupole mass spectrometer was the instrumentation platform.
Column: Agilent, Eclipse™ XDB-C8 4.6×150 mm, 1.8 μm, sn. USHAN01857, pn. 927975-906. Flow=1 mL/minute at 40° C. Mobile phases: A=70:28.5:1.5 (/v) methanol:water:acetic acid with 0.08% TEA/v;
The identified molecular species were detected using a multiple reaction monitoring (MRM) technique for the -ve mode exact mass of [M-H]^− and the corresponding fragment 153 amu. […]
The content of each molecular species was calculated from the internal standards present in each sample extract. […]

[2] = test system: known non-responder to creatine supplementation; test: Creatine non-responder Subject B (MP): body weight and total strength, three-week strength training program; type: in vivo, human; conditions: subject two
Procedure: patient two, 185 cm tall, also a known non-responder to creatine supplementation, followed a three-week strength training program while testing whether supplementation with PA-enriched-phospholipid improves creatine response. Total starting total body weight and strength were measured on day one, followed by the training program, consisting of concentric and eccentric isotonic lifting exercises that worked the upper and lower body muscle groups with either free weights or weight machines used once or twice weekly. Strength training was performed three times per week with at least one day of rest between sessions, which alternated between lower and upper body exercises. During the three-week period, a total of 10 training sessions (five upper body and five lower body) were performed. Each exercise included two sets of ten repetitions at 40% and 65% 1RM, followed by two sets of 3 to 5 repetitions at 90% 1RM.
The lower body exercise included seven different exercises: seated leg press, leg curls, standing calf raises, leg extension, inclined leg lift, inverted situps (back extension) and 45° inclined situps. The upper body exercise consisted of seven different exercises: bench press, latissimus pulldown, triceps pulldown, inclined dumbbell curls, seated preacher curls, seated rows, and CyBec Pec Fly. Total upper body and lower body weight lifted were calculated as the average weight lifted during the last three sets multiplied by the average repetition in each set. Total strength was determined as the combined lower and upper total weight lifted. […] Strength was measured on days 1 and 22.
A four-week rest period followed the first three-week training program. The same program was repeated twice, the control was supplemented with creatine monohydrate (Creapure®, Alzchem, Germany), 5 grams per day of five grams creatine monohydrate for 21 days. During the second program, creatine monohydrate was given as for the control program with the addition of 1 gram per day PA-enriched phospholipid (Chemi Nutra, White Bear Lake, Minn.), which contained about 50% PA.

[3] = test system: known non-responder to creatine supplementation; test: Creatine non-responder Subject A (RJ): body weight and total strength, two-week strength training program; type: in vivo, human; conditions: subject one
Procedure: patient one, 198 cm tall, a known non-responder to creatine supplementation, followed a two-week strength training program while testing whether supplementation with PA-enriched-phospholipid improves creatine response. Total starting body weight and strength were measured on day one, followed by the training program, consisting of concentric and eccentric isotonic lifting exercises that worked the upper and lower body muscle groups. Either free weights or weight machines were used once or twice weekly. Strength training was performed three times per week with at least one day of rest between sessions, which alternated between lower and upper body exercises. During the two-week period, a total of six training sessions (three upper and three lower) were performed. Each exercise included two sets of ten repetitions at 30% and 60% 1RM, followed by two sets of 3 to 5 repetitions at 90% 1RM. The lower body exercise included seven different exercises: seated leg press, leg curls, standing calf raises, leg extensions, inclined leg lift, inverted situps (back extension) and 45° inclined situps. The upper body exercise consisted of seven different exercises: bench press, latissimus pulldown, triceps pulldown, inclined dumbbell curls, seated preacher curls, seated rows, and CyBec Pec Fly. Total upper body weight and lower body weight lifted were calculated as the average weight lifted during the last three sets multiplied by the average repetition in each set. Total strength was determined as the combined lower and upper total weight lifted. Total body weight was determined after day 8 and day 15. Strength was measured on days 1 and 15. A four-week rest period followed the first two-week training program. The same program was repeated twice, the control was supplementation of creatine monohydrate (Creapure, Alzchem, Germany) 4 times 5 grams per day for five days of loading, followed by nine days of five grams creatine monohydrate. During the second program, creatine monohydrate was given as for the control program with the addition of PA-enriched phospholipid (Chemi Nutra, White Bear Lake, Minn.) which was about 50% PA.

CCCCCCCCCCCCCC(=O)OC[C@@H](O)COP(=O)(O)O [14:0 LPA]
plasma concentration, Time 0 @10 AM [1]: 13.00 nM

CCCCCCCCCCCCCCCC(=O)OCC(O)COP(=O)(O)O (centres unmarked) [16:0 LPA]
plasma concentration, Time 0 @10 AM [1]: 51.33 nM

CCCCCCCCCCCCCCCCCC(=O)OC[C@@H](O)COP(=O)(O)O [18:0 LPA]
plasma concentration, Time 0 @10 AM [1]: 0.00 nM

CN(CC(=O)O)C(=N)N [Creatine Supplement, N-methyl-N-guanyl glycine]
body weight, day 1 ([2]; day 1): 81.9 kg
increase in total strength (total weight lifted) ([2]; day 1 to day 22): 5%
body weight, day 10 ([2]; day 10): 81.5 kg
body weight, day 22 ([2]; day 22): 81.2 kg
body weight, day 1 ([3]; day 1): 88.8 kg
increase in total strength (total weight lifted) ([3]; day 1 to day 15): 5%
body weight, day 8 ([3]; day 8): 88.3 kg
body weight, day 15 ([3]; day 15): 88.0 kg
